# ChEMBL document CHEMBL6083193, “Advancing drug discovery: Thiadiazole derivatives as multifaceted agents in medicinal chemistry and pharmacology” (Bioorg Med Chem, 2024)
# Key:
# Toxoplasma gondii = experiment: Antiparasitic activity against Toxoplasma gondii RH infected in human HFF cells; format: functional, organism-based
# Alpha glucosidase = Alpha glucosidase (Homo sapiens, UniProt O43451+P10253+P14410+Q2M2H8); experiment: Inhibition of Alpha-glucosidase (unknown origin); format: protein assay
# [1] = Inhibition of Alpha-amylase (unknown origin); set-up: species or system Homo sapiens
# A2780 [2] = experiment: Anticancer activity against human A2780 cells by MTT assay; format: functional, cell-based
# MCF7 [3] = experiment: Cytotoxicity against human MCF7 cells assessed as reduction in cell viability by MTT assay; format: functional, cell-based
# COLO 205 [4] = experiment: Anticancer activity against human COLO 205 cells by MTT assay; format: functional, cell-based
# A2780 [5] = experiment: Cytotoxicity against human A2780 cells assessed as reduction in cell viability by MTT assay; format: functional, cell-based
# A549 [6] = experiment: Cytotoxicity against human A549 cells assessed as reduction in cell viability by MTT assay; format: functional, cell-based
# MCF7 [7] = experiment: Anticancer activity against human MCF7 cells by MTT assay; format: functional, cell-based
# A549 [8] = experiment: Anticancer activity against human A549 cells by MTT assay; format: functional, cell-based
# COLO 205 [9] = experiment: Cytotoxicity against human COLO 205 cells assessed as reduction in cell viability by MTT assay; format: functional, cell-based
# [10] = Antioxidant activity assessed as DPPH radical scavenging activity measured for 30 mins by spectrophotometric analysis; format: functional
# A549 [11] = experiment: Cytotoxicity against human A549 cells assessed as reduction in cell growth; format: functional, cell-based
# Mus musculus = experiment: Antiinflammatory activity against carrageenan-induced paw edema in Swiss mouse assessed as reduction in paw edema at 15 mg/kg, po relative to control; format: functional; set-up: scale not given: the % may be the effect or the level left
# [12] = Inhibition of alpha amylase (unknown origin) using starch as substrate pre-incubated for 30 mins followed by substrate addition and measured after 30 mins by absorbance based analysis; set-up: species or system Homo sapiens
compound,measurement,setting,value
Cc1[nH]cnc1-c1nnc(Nc2ccc(Cl)cc2)s1,IC50,Toxoplasma gondii,4.7 µg/mL
Cc1[nH]cnc1-c1nnc(Nc2ccc(F)cc2)s1,IC50,Toxoplasma gondii,4.7 µg/mL
Cc1cccc(CN2C(=O)/C(=N\Nc3nncs3)c3ccccc32)c1,IC50,Alpha glucosidase,< 500000 nM
same,IC50,[1],2590 nM
Cc1nc[nH]c1-c1nnc(Nc2ccccc2Cl)s1,IC50,Toxoplasma gondii,4.7 µg/mL
O=[N+]([O-])c1ccc(NC(=S)Nc2nsc(Nc3cccc([N+](=O)[O-])c3)n2)cc1,IC50,Alpha glucosidase,2200 nM
same,IC50,[1],1300 nM
O=[N+]([O-])c1ccccc1NC(=S)Nc1nsc(Nc2ccc(Cl)c(Cl)c2)n1,IC50,Alpha glucosidase,2200 nM
same,IC50,[1],1300 nM
COc1ccc(NC(=O)c2ccc(-c3nsc(-c4csc(-c5ccncc5)n4)n3)cc2)cc1,IC50,A2780 [2],110 nM
same,IC50,MCF7 [3],340 nM
same,IC50,COLO 205 [4],110 nM
same,IC50,A2780 [5],140 nM
same,IC50,A549 [6],110 nM
same,IC50,MCF7 [7],110 nM
same,IC50,A549 [8],110 nM
same,IC50,COLO 205 [9],120 nM
S=C(Nc1ccc(Cl)c(Cl)c1)Nc1nsc(Nc2ccc(Cl)c(Cl)c2)n1,IC50,Alpha glucosidase,2200 nM
same,IC50,[1],1300 nM
Fc1ccccc1NC(=S)Nc1nsc(Nc2ccc(Cl)c(Cl)c2)n1,IC50,Alpha glucosidase,2200 nM
same,IC50,[1],1300 nM
N#C/C(=N\Nc1ccccc1)C(=O)Nc1nncs1,IC50,[10],37.25 µg/mL
CCNc1nnc(SCC(=O)N2N=C(c3ccccc3)CC2c2ccc([N+](=O)[O-])cc2)s1 (configuration not stated),IC50,A549 [11],10000 nM
Cc1nc[nH]c1-c1nnc(Nc2ccc(I)cc2)s1,IC50,Toxoplasma gondii,4.7 µg/mL
Cc1nc[nH]c1-c1nnc(Nc2cccc(Br)c2)s1,IC50,Toxoplasma gondii,4.7 µg/mL
Cc1ccc(NC(=S)Nc2nsc(Nc3ccc(Cl)cc3)n2)cc1,IC50,Alpha glucosidase,2200 nM
same,IC50,[1],1300 nM
CCc1ccc(C2SCC(=O)N2c2nnc(-c3ccccc3)s2)cc1 (configuration not stated),IC50,Alpha glucosidase,< 500000 nM
same,IC50,[1],3870 nM
COc1cc(NC(=O)c2ccc(-c3nsc(-c4csc(-c5ccncc5)n4)n3)cc2)cc(OC)c1OC,IC50,A2780 [2],110 nM
same,IC50,MCF7 [3],340 nM
same,IC50,COLO 205 [4],110 nM
same,IC50,A2780 [5],140 nM
same,IC50,A549 [6],110 nM
same,IC50,MCF7 [7],110 nM
same,IC50,A549 [8],110 nM
same,IC50,COLO 205 [9],120 nM
Cc1nc[nH]c1-c1nnc(Nc2ccccc2I)s1,IC50,Toxoplasma gondii,4.7 µg/mL
O=[N+]([O-])c1ccc(NC(=S)Nc2nsc(Nc3ccc(Cl)cc3)n2)cc1,IC50,Alpha glucosidase,2200 nM
same,IC50,[1],1300 nM
O=C1N/C(=N\c2nnc(C34CC5CC(CC(C5)C3)C4)s2)S/C1=C\c1cccc([N+](=O)[O-])c1,Activity,Mus musculus,66.7%
O=[N+]([O-])c1cccc(NC(=S)Nc2nsc(Nc3cccc([N+](=O)[O-])c3)n2)c1,IC50,Alpha glucosidase,2200 nM
same,IC50,[1],1300 nM
O=C1N/C(=N\c2nnc(C34CC5CC(CC(C5)C3)C4)s2)S/C1=C\c1cccc(Cl)c1Cl,Activity,Mus musculus,66.7%
O=[N+]([O-])c1cccc(NC(=S)Nc2nsc(Nc3ccc(F)cc3)n2)c1,IC50,Alpha glucosidase,2200 nM
same,IC50,[1],1300 nM
O=C(NC1=NN2C(=O)/C(=C/C3CCCO3)N=C2S1)c1cccs1 (configuration not stated),IC50,[12],36100 nM
O=C(Nc1cc([N+](=O)[O-])cc([N+](=O)[O-])c1)c1ccc(-c2nsc(-c3csc(-c4ccncc4)n3)n2)cc1,IC50,A2780 [2],110 nM
same,IC50,COLO 205 [4],110 nM
same,IC50,MCF7 [7],110 nM
same,IC50,A549 [8],110 nM
Cc1ccc(NC(=O)c2ccc(-c3nsc(-c4csc(-c5ccncc5)n4)n3)cc2)cc1,IC50,A2780 [2],110 nM
same,IC50,MCF7 [3],340 nM
same,IC50,COLO 205 [4],110 nM
same,IC50,A2780 [5],140 nM
same,IC50,A549 [6],110 nM
same,IC50,MCF7 [7],110 nM
same,IC50,A549 [8],110 nM
same,IC50,COLO 205 [9],120 nM
CCCNc1nnc(SCC(=O)N2N=C(c3ccccc3)CC2c2ccc([N+](=O)[O-])cc2)s1 (configuration not stated),IC50,A549 [11],10000 nM
O=C1N/C(=N/c2nn(-c3ccccc3)nc2C(=O)Nc2nncs2)S/C1=C\c1ccc(Cl)cc1,IC50,[10],22.63 µg/mL
COc1ccc(Nc2nnc(SCC(=O)N3N=C(c4ccccc4)CC3c3ccc([N+](=O)[O-])cc3)s2)cc1 (configuration not stated),IC50,A549 [11],10000 nM
COc1ccccc1NC(=S)Nc1nsc(Nc2ccc(Cl)c(Cl)c2)n1,IC50,Alpha glucosidase,2200 nM
same,IC50,[1],1300 nM
O=C1N/C(=N\c2nnc(C34CC5CC(CC(C5)C3)C4)s2)S/C1=C\c1ccccc1,Activity,Mus musculus,66.7%
Cc1nc[nH]c1-c1nnc(Nc2ccc(Br)cc2)s1,IC50,Toxoplasma gondii,4.7 µg/mL
COc1cc(NC(=O)c2ccc(-c3nsc(-c4csc(-c5ccncc5)n4)n3)cc2)cc(OC)c1,IC50,A2780 [2],110 nM
same,IC50,MCF7 [3],340 nM
same,IC50,COLO 205 [4],110 nM
same,IC50,A2780 [5],140 nM
same,IC50,A549 [6],110 nM
same,IC50,MCF7 [7],110 nM
same,IC50,A549 [8],110 nM
same,IC50,COLO 205 [9],120 nM
CN(C)c1ccc(/C=C2\S/C(=N/c3nnc(C45CC6CC(CC(C6)C4)C5)s3)NC2=O)cc1,Activity,Mus musculus,66.7%
FC(F)(F)c1cccc(Nc2nc(NC(=S)Nc3ccc(Cl)cc3)ns2)c1,IC50,Alpha glucosidase,2200 nM
same,IC50,[1],1300 nM
COc1ccc(/C=C2\S/C(=N/c3nnc(C45CC6CC(CC(C6)C4)C5)s3)NC2=O)cc1,Activity,Mus musculus,66.7%
Cc1cc(C)cc(NC(=O)c2ccc(-c3nsc(-c4csc(-c5ccncc5)n4)n3)cc2)c1,IC50,A2780 [2],110 nM
same,IC50,COLO 205 [4],110 nM
same,IC50,MCF7 [7],110 nM
same,IC50,A549 [8],110 nM
